Measurements as given in US20230159436A1, “APPLICATIONS OF AMIDE ANALOGS OF TRITERPENES IN CURES OF CANCER AND OTHER DISEASES” (Pacific Arrow Limited, priority 2021, published 2023).
Converted amounts (≈) assume the structure as drawn. Where two headings read alike, the source gives them in different places.

Tests used:
[1] = test system: ovarian cancer cells; assay: Inhibiting growth of ovarian cancer cells; assay type: cell-based
[2] = test system: cancer growth, cancer invasion, cells invasion or cancer cell invasion; assay: Inhibition of cancer growth and invasion (anti-cancer activity); assay type: cell-based
From the text: The program is based on the purification methods and biological assays including the MTT assay as described in International Application No. PCT/US05/31900, filed Sep. 7, 2005, U.S. Ser. No. 11/289,142, filed Nov. 28, 2005, and U.S. Ser. No. 11/131,551, filed May 17, 2005, and PCT/US2008/002086, 1188-ALA-PCT, filed Feb. 15, 2008, Ser. No. 12/344,682, 1020-B1-US, filed Dec. 29, 2008, US009499577B2, filed Jun. 24, 2014. The details of Analysis of gene expression of ES2 cells after Y-treatment by Microarray, Data Analysis Methods and Western blot in PCT/US2008/002086, 1188-ALA-PCT, filed Feb. 15, 2008, and the cell invasion experiments methods in International Application PCT/US2010/0042240, filed Jul. 16, 2010.

[3] = test system: U2OS, H460, HTB-9, ES2, HCT116, Capan, OVCAR3, DU145, SK-Mel-5, KB, A498, MCF-7, HepG2, T98G, K562, HeLa; assay: MTT Cytotoxic Assay of reaction products and isolated compounds; assay type: cell-based
From the text: The peaks, fractions and compounds are selected according to the activities of times studies and the changes of peaks. Selecting the HPLC fractions for isolation is according to the cytotoxic activity of the reaction product obtained at a specific time. The compounds having strong to weak activities are selected and isolated. Selecting the HPLC fractions for isolation may be according to the cytotoxic activity of times studies and the change of peaks. The anti cancer activities are the MTT studies of bone (U2OS), lung (H460), bladder (HTB-9), ovary (ES2), colon (HCT116), pancreas (Capan), ovary (OVCAR3), prostate (DU145), skin (SK-Mel-5), mouth (KB), kidney (A498), breast (MCF-7), liver (HepG2), brain (T98G), luekemia (K562), cervix (HeLa).
Esterification, amidation, amination, or sulfonamidation of compound (A), (B), (C), (D1), (D2), (E), (F), (G), (H1), (H2), E4A, E4A2Y, E4D, E4D1, (P1), P(2), terpene, isoprene, triterpenes, hydroxylated triterpenes, with acyl halide, wherein the halide comprise chloride, bromide, fluoride and iodide, wherein the acyl halide comprise acyl chloride, wherein acyl chloride comprise tigloyl chloride, angeloyl chloride, acetyl chloride, crotonoyl chloride, 3,3-dimethylartyloyl chloride, senecioyl chloride, cinnamoyl chloride, pentenoyl chloride, hexanoyl chloride, benzoyl chloride, ethylbutyryl chloride, propionyl chloride, 2-propenoyl chloride, isobutyryl chloride, butyryl chloride, (2E)-2-pentenoyl chloride, 4-Pentenoyl chloride, 5-hexenoyl chloride, heptanoyl chloride, octanoyl chloride, nonanoyl chloride, decanoyl chloride, Lauroyl chloride, myristoyl chloride, oleoyl chloride. The compounds vary in composition when the time or temperature of the reaction is changed. The peaks, fractions and compounds are selected according to the activities of times studies and the changes of peaks. The compounds having strong to weak activities are selected and isolated. The anti cancer activities (Cytotoxic Assay) are the MTT studies of bone (U2OS), lung (H460), bladder (HTB-9), ovary (ES2), colon (HCT116), pancreas (Capan), ovary (OVCAR3), prostate (DU145), skin (SK-Mel-5), mouth (KB), kidney (A498), breast (MCF-7), liver (HepG2), brain (T98G), luekemia (K562), cervix (HeLa). The active esterification, amidation, amination, or sulfonamidation products are purified with HPLC. The reaction product of mixtures and individual compounds are tested with MTT Cytotoxic Assay. Details of method are in Experiment 3 of the present application. A second esterification of compound can be selected from the above experiment results to produce new active compounds. A partial esterification compound is selected from the above experiments to perform a second or repeated with a third esterification with different acyl chloride in order to produce new active compounds with the experiments in the present application. The active compounds of this invention are triterpenes in form of amine, sulfonamides, amide, and urea analogs, providing extremely stable activity in solution. They prolong the activities and duration of drug in a subject.
(§1) Cells. HTB-9 (bladder), HeLa-S3 (cervix), DU145 (prostate), H460 (lung), MCF-7 (breast), K562 (leukemia), HCT116 (colon), HepG2 (liver), U2OS (bone), T98G (brain), SK-MEL-5 (Skin) and OVCAR 3, ES2 (ovary), Pancreas (Capan), Mouth (KB), Kidney (A498).
MTT Assay. The procedure for MTT assay followed the method described by Carmichael et al. (1987) with modifications. The cells were seeded into a 96-well plate at for 24 hours before drug-treatment. The cells were then exposed to the drugs for 48, 72, or 96 hours. After the drug-treatment, MTT (0.5 mg/mL) was added to cultures and incubated for an hour. The formazan (product of the reduction of tetrazolium by viable cells) formed and was dissolved with DMSO and the O.D. at 490 nm, and was measured by an ELISA reader. The MTT level of the cells before drug-treatment was also measured (T0). […]

[4] = test system: red blood cells (RBC); assay: Haemolytic assay; assay type: cell-based, human
Procedure: Erythrocytes (RBC) were isolated from human blood (EDTA whole blood, collected randomly). 50 ul of the 10% RBC suspension (in PBS) was added to 2 ml of sample solutions (concentration range from 0.1 ug/ml to 400 ug/ml) in PBS. The mixture was vortexed briefly and sat for 60 min at room temperature. The mixture was spun at 3K for 10 min and the relative amounts of lysed hemoglobin in the supernatant were measured at 540 nm. The synthetic compounds of present application were tested with this method.

[5] = test system: OVCAR3; assay: MTT assay, ovary (OVCAR3); assay type: cell-based
Procedure: as §1
MTT Assay. The procedure for MTT assay followed the method described by Carmichael et al. (1987) with modifications. The cells were seeded into a 96-well plate at for 24 hours before drug-treatment. The cells were then exposed to the drugs for 48, 72, or 96 hours. After the drug-treatment, MTT (0.5 mg/mL) was added to cultures and incubated for an hour. The formazan (product of the reduction of tetrazolium by viable cells) formed and was dissolved with DMSO and the O.D. at 490 nm, and was measured by an ELISA reader. The MTT level of the cells before drug-treatment was also measured (T0). The % cell-growth (% G) is calculated as: % G=(TD−T0/TC−T0)×100(1), where TC or TD represents O.D. readings of control or drug-treated cells.
When T0>TD, then the cytotoxicity (LC) expressed as % of the control is calculated as: % LC=(TD−T0/T0)×100(2).

IC50 of ovary (OVCAR3) [5]	Compound	anti-cancer activity [2]	inhibiting cancer growth, cancer invasion, cells invasion or cancer cell invasion [2]	hemolytic activity [4]	other results
	C/C=C(/C)C(=O)O[C@@H]1[C@H](C)CC2C3=CCC4[C@@]5(C)CC[C@H](O[C@@H]6OC(C(=O)O)[C@@H](O)C(O[C@@H]7O[C@@H](CO)C(O)C7O)C6O[C@@H]6OC(CO)[C@H](O)C(O)C6O)C(C)(C)C5CC[C@@]4(C)[C@]3(C)[C@@H](O)[C@@H](O)[C@@]2(CO)[C@H]1OC(=O)/C(C)=C\C (stereo partly drawn) [Compound Y, 3-O-[β-D-galactopyranosyl (1→2)]-α-L-arabinofuranosy (1→3)-β-D-glucuronopyranosyl-21,22-O-diangeloyl-3β,15α,16α,21β,22α,28-hexahydroxyolean-12-ene]				IC50 [1]: ~1.5 µg/mL (≈ 1.33 µM)
	CC1(C)CC2C3=CCC4[C@@]5(C)CC[C@H](O)[C@](C)(CO)C5CC[C@@]4(C)[C@]3(C)C[C@@H](O)[C@@]2(CO)[C@@H](O)[C@@H]1O (stereo partly drawn) [E4A]	no anti-cancer activity	no effect	no hemolytic activity	MTT cytotoxic activity ([3]; FIG. 8, FIG. 10): no activity
	CC1(C)CC2C3=CCC4C5(C)CCC(N)C(C)(CN)C5CCC4(C)C3(C)CC(N)C2(CN)C(N)C1N (stereo not drawn) [E4D1]	no anti-cancer activity	no effect	no hemolytic activity	Cytotoxicity activity [3]: none and moderate and NONE; Cytotoxicity activity ([3]; listed as E1E4D1): none; Cytotoxicity activity ([3]; listed as I 1E4D1): none
	CC1(C)CC2C3=CCC4C5(C)CCC(O)C(C)(CN)C5CCC4(C)C3(C)CC(O)C2(CN)C(O)C1O (stereo not drawn) [E4D]	no anti-cancer activity	no effect	no hemolytic activity	Cytotoxicity activity [3]: none and None
18	CC=C(C)C(=O)OCC1(C)C(O)CCC2(C)C1CCC1(C)C2CC=C2C3CC(C)(C)C(O)C(O)C3(CO)C(O)CC21C (stereo not drawn) [Tig-N]	have anti cancer activities			
23	CC=C(C)C(=O)OCC1(C)C(O)CCC2(C)C1CCC1(C)C2CC=C2C3CC(C)(C)C(O)C(OC(=O)C(C)=CC)C3(CO)C(O)CC21C (stereo not drawn) [Tig-Q]	have anti cancer activities			
25	CC=C(C)C(=O)OCC1(C)C(O)CCC2(C)C1CCC1(C)C2CC=C2C3CC(C)(C)C(O)C(OC(=O)C(C)=CC)C3(COC(=O)C(C)=CC)C(O)CC21C (stereo not drawn) [Tig-T]	have anti cancer activities			
27	CC=C(C)C(=O)OCC1(C)C(OC(=O)C(C)=CC)CCC2(C)C1CCC1(C)C2CC=C2C3CC(C)(C)C(OC(=O)C(C)=CC)C(O)C3(CO)C(O)CC21C (stereo not drawn) [Tig-U]				
9	CC=C(C)C(=O)OCC1(C)C(O)CCC2(C)C1CCC1(C)C2CC=C2C3CC(C)(C)C(OC(=O)C(C)=CC)C(O)C3(COC(=O)C(C)=CC)C(O)CC21C (stereo not drawn) [Tig-V]	have anti cancer activities			
